According to US20260132165A1, “MODIFIED NUCLEOSIDE ANALOGUE AND USE THEREOF, AND NUCLEOSIDE ANALOGUE-CONTAINING DOUBLE-STRANDED OLIGONUCLEOTIDE AND USE THEREOF” (RIGERNA THERAPEUTICS (BEIJING) CO., LTD., priority 2023, published 2026):
“And” between values parts separate entries of the source, which are not always exact repeats. Equal entries are not always repeated. Strand notation (5' to 3'): a small letter for the sugar, then the base; units joined by * are phosphorothioate-linked, units joined directly phosphodiester-linked; [ ] holds rarer units or linkages, { } end groups; capitals alone tell only the bases. [NM031] = nucleoside analogue NM031 of the disclosure, C16 lipid conjugate (uridine-based); {VP} = (thio)vinylphosphonate on the antisense 5' nucleotide, as listed; m = 2'-O-methyl; f = 2'-fluoro

Legend:
[1] = tested on: target gene SOD1; test: Test Example 3: inhibitory activity of lipid conjugated siRNA sequences on SOD1 by lateral ventricle administration to mice; assay type: in vivo, C57BL/6j mice; details: 200 μg per mouse, D5
Protocol: 6-8 Week-old C57BL/6j mice were randomly grouped by body weight. Mice in each group were administered with siRNA by lateral ventricle administration, with an administration dose per mouse depending on a specific test. Taking Bregma in mouse brain as point 0 (origin), coordinates of right ventricle were found using the cerebral stereotaxic apparatus and position was marked on surface of skull (position of lateral ventricle was AP (anteroposterior, bregma anterior and posterior): −0.58 mm, ML (mediolateral, left and right of middle raphe): −1.2 mm, DV (dorsoventral, up and down cerebral dura mater plane): −2.2 mm). A dental electric drill was used to drill in the skull above a position of interest, and then medicament was injected into the lateral ventricle by a micro-dosing pump, wherein a total injection volume was 5 μL, and injection duration was 10 min. Needle was retained for 5 min after completion of injection, and then slowly withdrawn. Afterwards, needle hole was sealed with biomedical glue, and then head skin was adhered. After animals woke up, the animals were returned back to animal house and further fed. PBS control group was administered with the same volume of siRNA-free PBS solution. The day of administration was recorded as 0 day (D0), and the mice were sacrificed at observation point after the administration. Different parts of brain region were respectively taken and stored in the RNAlater.
(§1) RNA extraction: the above tissue samples were taken out from the RNAlater, and smashed for 60 s in Tissuelyser type II full-automatic tissue homogenizer, and total RNAs of various tissue samples were extracted using the full-automatic nucleic acid extraction instrument and the nucleic acid extraction kit from Zhejiang Hanwei Science and Technology Co. Ltd. according to methods described in instructions.
(§2) Reverse transcription reaction: 1 μg of the extracted total RNAs of the tissue samples were taken, and configured into 20 μL of reverse transcription system according to a method described in kit instructions by using a reverse transcription kit (Reverse Transcription System, A3500) from Promega Corporation and selecting Oligo (dT)15 reverse transcription primers, and the reverse transcription reaction was completed. After the reaction was ended, 80 μL of RNase-Free water was added into the reverse transcription system to provide cDNA solution for Real-time PCR detection.
(§3) Real-time PCR detection: 20 μL of Real-time PCR reaction system per PCR detection well was configured according to a method described in kit instructions using SYBR™ Select Master Mix (Catalog number: 4472908) reagent from ABI company. Each detection system contained 5 μL of cDNA template obtained from the above reverse transcription reaction, 10 μL of SYBR™ Select Master Mix, 0.5 μL of 10 μM upstream primers, 0.5 μL of 10 μM downstream primers, and 4 μL of RNase-Free H2O. The configured reaction system was subjected to Real-time PCR amplification on ABI StepOnePlus PCR instrument by a three-step method, wherein an amplification procedure was pre-denaturation at 95° C. for 10 min, then denaturation at 95° C. for 30 s, annealing at 60° C. for 30 s, and extension at 72° C. for 30 s; and processes of denaturation, annealing, and extension were repeated for 40 cycles. Gene expression differences were calculated by the ΔΔCt method after completion of the procedure.
In the real-time fluorescence quantitative PCR method, relative quantitative calculation of remaining expression level and inhibition rate of gene mRNA of interest in various test groups was performed by the ΔΔCt method, and the calculation method is as follows: […]

[2] = tested on: target gene SOD1; test: Test Example 5: inhibitory activity of lipid conjugated siRNA sequences on SOD1 by intrathecal administration to rats; assay type: in vivo, SD rats; parameters: key to Lumbar segmen Mean value of inhibition rate / Cortex Mean value of inhibition rate / Thoracic segment Mean value of inhibition rate / Cervical segment Mean value of inhibition rate / Cerebellum Mean value of inhibition rate / Hippocampus Mean value of inhibition rate: inhibition rate of SOD1 mRNA, calculated by the ΔΔCt method; details: D7
Protocol: 6-8 Week-old SD rats were randomly grouped by body weight. Rats in each group were administered with siRNA by intrathecal administration, with an administration dose of 900 μg per rat. Injection was administered from rat spinal cord L5-L6, with an administration volume of 40 μL. Needle was retained for 2 min after completion of injection, and then slowly withdrawn. PBS control group was administered with the same volume of siRNA conjugate-free PBS solution. The day of administration was recorded as 0 day (D0), and the rats were sacrificed at observation point after administration. Different segments of spinal cord and different regions of brain were respectively taken and stored in the RNAlater.
as §1, §2, §3
In the real-time fluorescence quantitative PCR method, relative quantitative calculation of remaining expression level and inhibition rate of gene mRNA of interest in various test groups was performed by the ΔΔCt method, and the calculation method is as follows:
The present example evaluated, by an evaluation method for inhibitory activity on a target gene by intrathecal administration to rats, the inhibitory activity of siRNA sequence RZ899060 with the sense strand with the NM031 conjugation at Position 4 and vector-free siRNA sequence RZ899056, and Uhd conjugated siRNA reference sequence RZ899055 on the target gene SOD1 of interest in spinal cord and brain of rats.
6-8 Week-old SD rats were randomly grouped by body weight, 5 per group, 4 groups in total. Rats in each group were dosed with the above siRNA conjugates by intrathecal administration, with an administration dose of 900 μg per rat, and an administration volume of 40 μL. PBS control group was administered with the same volume of siRNA conjugate-free PBS solution. The day of administration was recorded as 0 day (D0), and the rats were sacrificed on D7 after administration. […]

With “RZ899060: siRNA sequence with the sense strand with the NM031 conjugation at Position 4; SEQ ID NO: 3 / 22 (sense mU*mU*mU[NM031]mAmAfUfCfCmUmCmAmCmUmCmUmAmAmA; antisense {VP}-mU*fU*mUmAmGfAmGmUmGmAmGmGmAfUmUfAmAmAmA*mU*mG)” the “Cerebellum Mean value of inhibition rate %” value ([1]; cerebellum) was 56.11%, the “Cortex Mean value of inhibition rate %” value ([1]; cortex) was 79.05% and the “Hippocampus Mean value of inhibition rate %” value ([1]; hippocampus) was ≥ 90% and 90.98%. The “Cerebellum Mean value of inhibition rate” value ([2]; cerebellum, intrathecal, 900 μg per rat) was 55.10, the “Cortex Mean value of inhibition rate” value ([2]; cerebral cortex, intrathecal, 900 μg per rat) was 43.00 and the “activity compared with the reference sequence RZ899055” value ([2]; hippocampus and cortex in the brain region, intrathecal 900 μg per rat) was “substantially comparable”. For the same substance, the “Hippocampus Mean value of inhibition rate” value ([2]; hippocampus, intrathecal, 900 μg per rat) was 47.77, the “activity compared with the Uhd conjugated reference sequence RZ899055” value ([2]; lumbar segment, intrathecal 900 μg per rat) was “substantially comparable” and the “inhibitory activity in the spinal cord segments” value ([2]; lumbar, thoracic and cervical segment, intrathecal 900 μg per rat) was no less than 80%. For the same substance, the “Cervical segment Mean value of inhibition rate” value ([2]; spinal cord cervical segment, intrathecal, 900 μg per rat) was 83.37, the “Lumbar segmen Mean value of inhibition rate” value ([2]; spinal cord lumbar segment, intrathecal, 900 μg per rat) was 84.24 and the “Thoracic segment Mean value of inhibition rate” value ([2]; spinal cord thoracic segment, intrathecal, 900 μg per rat) was 94.54. The “activity compared with the Uhd conjugated reference sequence RZ899055” value ([2]; thoracic segment and cervical segment of spinal cord, intrathecal 900 μg per rat) was “superior”.
